Assay results as given in patent US20100035882A1, “INHIBITION OF PDE2A” (priority 2006, published 2010).
Where “and” joins values, the source holds several entries; their conditions need not be identical. Identical values can stand only once. Entries after “also recorded” stand apart in the source; their conditions may differ.

How the values were obtained:
[1] = system: hypertrophy marker MYHCB in H9C2 rat cells; experiment: Relative expression of hypertrophy marker MYHCB in H9C2 rat cells after vasopressin ± BAY 60-7550 (real-time PCR); assay type: cell-based
Protocol: FIG. 2: Relative expression of the hypertrophy marker MYHCB in H9C2 rat cells after stimulation by vasopressin±PDE2A inhibitor BAY 60-7550.
The expression of ANP and MYHCB relative to L32 ribosomal protein in H9C2 cells after incubation with vasopressin (0.1 micromol, 1 micromal, 10 micromol) for 72 h is shown. […] (Mean relative expression rE from a duplicate determination).
(§1) The relative expression of PDE2A in H9c2 rat cells is measured by quantifying the mRNA using the real-time polymerase chain reaction. Compared with conventional PCR, the real-time PCR has the advantage of more accurate quantification by introducing an additional, fluorescence-labeled oligonucleotide. This so-called probe contains at the 5′ end the fluorescent dye FAM (6-carboy-fluorescein) and at the 3′ end the fluorescence quencher TAMRA (6-carboxy-tetramethylrhodamine). During the polymerase chain reaction, the fluorescent dye FAM is cleaved off the probe by the 5′-exonuclease activity of the Taq polymerase in the TaqMan PCR, and thus the previously quenched fluorescence signal is obtained. The number of the cycle at which the fluorescence intensity is about 10 standard deviations above the background fluorescence is recorded as the so-called threshold [treshold cyle (Ct value)].
Total RNA is isolated from the H9c2 rat cardiomyocytes from a 6-well (about 4×10^5 cells) using an RNeasy Kit (Qiagen Hilden). 1 μg portions of total RNA per tissue are reacted with 1 unit of DNase I (from Invitrogen) at room temperature for 15 min to remove contamination by genomic DNA. The Dnase I is inactivated by adding 1 μl of EDTA (25 mM) and subsequent heating at 65° C. (10 min).
Subsequently, cDNA synthesis is carried out in the same reaction mixture in accordance with the instruction for the “SUPERSCRIPT-II RT cDNA synthesis kit” (from Invitrogen), and the reaction volume is made up to 200 μl with distilled water. For the PCR, 7.5 μl of primer and probe mixture and 12.5 μl of TaqMan reaction solution (qPCR Mastermix, from Eurogentec) are added to 5 μl portions of the diluted cDNA solution. The final concentration of the primers is 300 nM in each case, and that of the probe is 150 nM. The sequence of the forward and reverse primer for the rat PDE2A is: 5′-[…]-3′ (SEQ ID NO: 3) and 5′-[…]-3′ (SEQ ID NO: 4), and the sequence of the fluorescent probe is 5′-6FAM-[…]-TAMRA-3′ (SEQ ID NO: 5). The sequence of the forward and reverse primer for r-MYHCB is: 5′-[…]-3′ (SEQ ID NO: 6) and 5′-[…]-3′ (SEQ ID NO: 7), and the sequence of the fluorescent probe is 5′-6FAM-[…]-TAMRA-3′ (SEQ ID NO: 8).
The PCR takes place on an ABI Prism SDS-7700 apparatus (from Applied Biosystems) in accordance with the manufacturer's instructions. 40 cycles are carried out in this case. The Ct (see above) which is obtained for the respective gene in the relevant cDNA corresponds to the cycle in which the fluorescence intensity of the liberated probe is about 10 standard deviations above the background signal. A lower Ct value thus means an earlier start of amplification, i.e. the original sample contains more mRNA. To compensate for any variations in the cDNA synthesis, the expression of a so-called “housekeeping gene”, which should always be expressed to the same extent irrespective of the treatment of the cells, is also analyzed in all the investigated samples. L32 ribosomal protein is used to standardize PDE2A expression in H9c2 cells. The sequence of the forward and reverse primer for rat L32 is 5′-[…]-3′ (SEQ ID NO: 9), and 5′-[…]-3′ (SEQ ID NO: 10), and the sequence of the probe is 5′-6FAM-[…]-TAMRA-3′ (SEQ ID NO: 11). The data are analyzed in the following way: the dCt value is calculated for each RNA. The dCt value is the difference between the Ct values for the candidate gene (i.e.: MYHCB or PDE2A) and the Ct value of the housekeeping gene in the respective tissue. […]

[2] = system: mice (C57b1/6 strain), isoprenaline-induced cardiac hypertrophy; experiment: Mouse isoprenaline hypertrophy model, heart weight/body weight ratio; assay type: in vivo; conditions: for Effect on heart weight:body weight ratio (HW:BW) (in words): with isoprenaline 2 mg/kg/d s.c.
Protocol: (§2) In order to verify that incubation of H9c2 cells with the PDE2A inhibitor BAY 60-7550 also leads to an increase in the intracellular cGMP level and thus has an antihypertrophic effect, the intracellular cGMP content was determined by EIA after stimulation of cGMP synthesis by ANP in the presence of the PDE2A inhibitor BAY 60-7550. […] To verify the in vitro findings, the antihypertrophic effect of the PDE2 inhibitor BAY 60-7550 was investigated in vivo in a mouse hypertrophy model. For this purpose, mice of the C57BL6 strain received subcutaneous administration of 2 mg/kg isoprenaline once a day and, as positive control, 10 mg/kg enalapril administered via the drinking water in addition to the isoprenaline.
FIG. 4: Alteration in the heart weight compared with the body weight (HW:BW) by subcutaneous administration of isoprenaline (2 mg/kg/d) and the influence of enalapril as positive control […] in the drinking water) and of the PDE2A inhibitor BAY 60-7550. The heart weight:body weight ratio as a function of the treatment is shown.
Assay of PDE2A inhibitors for anti-hypertrophic effect in vivo:
The antihypertrophic effect of the PDE2A inhibitor BAY 60-7550 is assayed by using the so-called mouse isoprenaline model [ ]. This involves 8 mice (C57b1/6 strain) per dose group receiving subcutaneous administration of isoprenaline at a dose of 2 mg/kg/d for 5 days, while the control group receives a saline solution as vehicle control. As positive control, in addition to the isoprenaline, the ACE inhibitor enalapril was administered in a dose of 10 mg/kg/d via the drinking water to one group, while two further groups received in addition to the isoprenaline the PDE2A inhibitor BAY 60-7550 administered intraperitoneally with a dose of 10 mg/kg/d. As a measure of the degree of cardiac hypertrophy, the heart weight/body weight (HW:BW) ratio is determined after 5 d, and the relation of the effect of the substances to the effect of isoprenaline is found.

[3] = system: intracellular cGMP in H9c2 rat cardiomyocytes; experiment: Intracellular cGMP content in H9c2 cells after ANP stimulation (EIA); assay type: cell-based; conditions: 15 min, FIG. 3
Protocol: as §2
FIG. 3: Change in the intracellular cGMP concentration in H9c2 rat cardiomyocytes after stimulation with ANP in the presence of various concentrations of the PDE2A inhibitor BAY 60-7550. The cGMP content in the cells after incubation with ANP and the stated dosages of the PDE2A inhibitor BAY 60-7550 for 15 min is shown.
Determination of the cGMP Content in H9c2 Cells after Preincubation with the PDE2A Inhibitor BAY 60-7550
The intracellular cGMP content in H9c2 cells was determined with the Biotrak (EIA) Immunoassay from Amersham (catalog No. RPN 226) in accordance with the manufacturer's protocol. […] The fluorescence is measured at 450/570 nm in a Tecan Spectrafluor photometer. […]

[4] = system: PDE2A-mRNA in H9c2 rat cardiomyocytes; experiment: Relative expression of PDE2A-RNA in H9c2 cells after arginine-vasopressin (real-time PCR); assay type: cell-based; conditions: Vasopressin 1 μM, 72 h, triplicate mean, control 159.73
Source text: For this purpose, the rat cardiomyocyte cell line H9c2 (ATCC number: CRL-1446) was exposed to a hypertrophic stimulus by arginine-vasopressin which is expressed inter alia in an increased expressed of marker genes for cardiac hypertrophy such as ANP (atrial natriuretic peptide) and MYHCB (myosin heavy chain beta-subunit). An increased expression of the cGMP-hydrolyzing PDE2A is able to reduce the intracellular cGMP level of the cardiomyocytes and thus suppress the antihypertrophic effect of cGMP [3,4]. […]
as §1, with “value)]. […]” for “value)].”

COc1ccc(Cc2nn3c(C(CCCc4ccccc4)C(C)O)nc(C)c3c(=O)[nH]2)cc1OC (stereo not shown) [BAY 60-7550, 2-(3,4-dimethoxybenzyl)-7-[1-(1-hydroxyethyl)-4-phenylbutyl]-5-methylimidazo[5,1-f][1,2,4]triazin-4(3H)-one]
Effect on vasopressin-induced increase of hypertrophy marker gene MYHCB (in words) ([1]; H9c2 cells, vasopressin stimulation, FIG. 2): dose-dependently suppresses the induction of the hypertrophy marker MYHCB by vasopressin; also recorded: dose-dependent suppression of the increase in the hypertrophy marker gene MYHCB | rE (expression of MYHCB relative to L32) ([1]; Vasopressin 1 μM + 0.1 μM BAY 60-7550, 72 h): 9.00 and 15.89 | MW (mean rE of MYHCB) ([1]; Vasopressin 1 μM + 0.1 μM BAY 60-7550, duplicate mean, vasopressin alone 17.23): 12.44 | MW (mean rE of MYHCB) ([1]; Vasopressin 1 μM + 1 μM BAY 60-7550, duplicate mean, vasopressin alone 17.23): 8.54 | rE (expression of MYHCB relative to L32) ([1]; Vasopressin 1 μM + 10 μM BAY 60-7550, 72 h): 4.56 and 3.01 | MW (mean rE of MYHCB) ([1]; Vasopressin 1 μM + 10 μM BAY 60-7550, duplicate mean, vasopressin alone 17.23): 3.79 | Effect on heart weight:body weight ratio (HW:BW) (in words) ([2]; BAY 60-7550 10 mg/kg i.p., 5 days, two groups, FIG. 4): able to suppress the isoprenaline-induced increase in heart weight almost as well as the positive control enalapril; also recorded: marked reduction in the ratio of the weight of the heart to the body weight | Effect on intracellular cGMP content (in words) [3]: dose-dependently and synergistically increases the intracellular cGMP level; also recorded: dose-dependently increases the intracellular cGMP content

CC(C)NCC(O)c1ccc(O)c(O)c1 (stereo not shown) [isoprenaline, reference compound]
Effect on heart weight in relation to body weight (in words) ([2]; isoprenaline 2 mg/kg/d s.c. alone, hypertrophic stimulus): increases the weight of the animal's heart in relation to the body weight

NC(=O)CC[C@@H]1NC(=O)[C@H](Cc2ccccc2)NC(=O)[C@H](Cc2ccc(O)cc2)NC(=O)[C@@H](N)CSSC[C@@H](C(=O)N2CCC[C@H]2C(=O)N[C@@H](CCCN=C(N)N)C(=O)NCC(N)=O)NC(=O)[C@H](CC(N)=O)NC1=O [Vasopressin, arginine-vasopressin, reference compound]
MW (mean rE of PDE2A) [4]: 613.64 | rE (expression of MYHCB relative to L32) ([1]; Vasopressin 1 μM alone, 72 h, H9C2 cells): 19.43 and 15.03 | MW (mean rE of MYHCB) ([1]; Vasopressin 1 μM alone, 72 h, duplicate mean, control 0.50): 17.23

CCOC(=O)[C@H](CCc1ccccc1)N[C@@H](C)C(=O)N1CCC[C@H]1C(=O)O [enalapril, reference compound]
Effect on heart weight:body weight ratio (HW:BW) (in words) ([2]; enalapril 10 mg/kg via drinking water, positive control): marked reduction in the ratio of the weight of the heart to the body weight
